Data from US9139557B2, “Carboxamide compounds and their use as calpain inhibitors” (Abbott GmbH & Co. KG, priority 2006, dated 2015).

biological target: T1, cathepsin L (Homo sapiens, UniProt P07711); assay: Cathepsin L enzyme inhibition in vitro (kinetic fluorescence assay); format: biochemical; settings: Ki(cathepsin L)/Ki(calpain) ratio
T1 construct: cathepsin L—isolated from human liver; purchased Calbiochem 219402; host or cells: human liver (tissue isolate)
Method: (§1) Testing for blockade of the corresponding enzymic activities was carried out by means of kinetic fluorescence assays (excitation 390 nm, emission 460 nm).
(§2) Apparent Ki values were calculated from the experimentally determined IC50 values by the Cheng-Prussoff relation assuming a reversible competitive enzyme inhibition. The Km values of the substrates used under the assay conditions indicated above were: 90 μM (Z-Phe-Arg-AMC, cathepsin B), 10 μM (Z-Gly-Pro-Arg-AMC, cathepsin K), 2 μM (Z-Phe-Arg-AMC, cathepsin L), and 30 μM (Z-Val-Val-Arg-AMC, cathepsin S).
(§3) The indicated Ki values are averages of the inhibition constants calculated on the basis of 2 to 4 independent dose-effect plots.
(§4) • 1. Calpain I: • 20 nM calpain-I—isolated from human erythrocytes (Calbiochem #208713), 100 μM Suc-Leu-Tyr-AMC (Bachem #1-1355) as substrate in buffer with 62 mM imidazole, 0.3 mM CaCl2, 0.10% CHAPS, 0.05% BSA, 1 mM DTT at pH 7.3 and room temperature. • 2. Cathepsin B: • 0.25 nM cathepsin B—isolated from human liver (Calbiochem #219362), 100 μM Z-Phe-Arg-AMC (Bachem #1-1160) as substrate 50 mM MES, 2 mM EDTA, 0.05% Brij 35, 2.5 mM L-cysteine, pH 6.0, room temperature. • 3. Cathepsin K: • 3 nM cathepsin K—activated from recombinant human procathepsin K from E. coli (Calbiochem #342001), 10 μM Z-Gly-Pro-Arg-AMC (Biomol #P-142) as substrate in 50 mM MES, 2 mM EDTA, 0.05% Brij 35, 2.5 mM L-cysteine, pH 6.0, room temperature. • 4. Cathepsin L: • 1 nM cathepsin L—isolated from human liver (Calbiochem #219402), 2 μM Z-Phe-Arg-AMC (Bachem #1-1160) as substrate in 50 mM MES, 2 mM EDTA, 0.05% Brij 35, 2.5 mM L-cysteine, pH 6.0, room temperature. • 5. Cathepsin S: • 0.5 nM recombinant human cathepsin S from E. coli (Calbiochem #219343), 20 μM Z-Val-Val-Arg-AMC (Bachem #1-1540) as substrate in 50 mM MES, 2 mM EDTA, 0.05% Brij 35, 2.5 mM L-cysteine, pH 6.0, room temperature.

T1 sequence (P07711 114-333): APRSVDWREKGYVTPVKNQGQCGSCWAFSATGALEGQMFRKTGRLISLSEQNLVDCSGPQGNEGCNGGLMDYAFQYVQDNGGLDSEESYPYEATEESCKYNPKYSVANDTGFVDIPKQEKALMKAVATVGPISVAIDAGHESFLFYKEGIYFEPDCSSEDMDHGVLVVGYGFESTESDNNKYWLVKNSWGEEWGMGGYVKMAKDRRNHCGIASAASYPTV

Compound | Sel cat. L
COCc1cn(-c2ncccc2C(=O)NC(Cc2ccccc2)C(=O)C(N)=O)nc1-c1ccc(F)cc1 (centres unmarked) [Example 170, N-[3-Amino-2,3-dioxo-1-(phenylmethyl)propyl]-2-{3-(4-fluorophenyl)-4-[(methyloxy)methyl]-1H-pyrazol-1-yl}pyridine-3-carboxamide] | + (+ means 30≦Ki(cathepsin L)/Ki(calpain)<50)
CCCCC(NC(=O)c1cccnc1-n1cnc(-c2ccc(C(F)(F)F)cc2)c1)C(=O)C(N)=O.Cl (centres unmarked) [Example 17, N-{1-[Amino(oxo)acetyl]pentyl}-2-{4-[4-(trifluoromethyl)phenyl]-1H-imidazol-1-yl}nicotinamide hydrochloride] | ++ (++ means a Ki(cathepsin L)/Ki(calpain) ratio of ≧50)
NC(=O)C(=O)C(Cc1ccccc1)NC(=O)c1cccnc1-n1cnc(-c2ccc(Cl)cc2)c1 (centres unmarked) [Example 9, N-(3-Amino-1-benzyl-2,3-dioxopropyl)-2-[4-(4-chlorophenyl)-1H-imidazol-1-yl]nicotinamide] | + (+ means 30≦Ki(cathepsin L)/Ki(calpain)<50)
CS(=O)(=O)NCc1cn(-c2ncccc2C(=O)NC(Cc2ccccc2)C(=O)C(N)=O)nc1-c1ccc(F)cc1 (centres unmarked) [Example 187, N-[3-Amino-2,3-dioxo-1-(phenylmethyl)propyl]-2-[3-(4-fluorophenyl)-4-{[(methylsulfonyl)amino]methyl}-1H-pyrazol-1-yl]pyridine-3-carboxamide] | + (+ means 30≦Ki(cathepsin L)/Ki(calpain)<50)
CCCCC(NC(=O)c1cccnc1-n1cnc(-c2ccccc2)c1)C(=O)C(N)=O (centres unmarked) [Example 2, N-{1-[Amino(oxo)acetyl]pentyl}-2-(4-phenyl-1H-imidazol-1-yl)nicotinamide] | ++ (++ means a Ki(cathepsin L)/Ki(calpain) ratio of ≧50)
Cc1cn(-c2ncccc2C(=O)NC(Cc2ccccc2)C(=O)C(N)=O)nc1-c1ccccc1 (centres unmarked) [Example 86, N-[3-Amino-2,3-dioxo-1-(phenylmethyl)propyl]-2-(4-methyl-3-phenyl-1H-pyrazol-1-yl)pyridine-3-carboxamide] | ++ (++ means a Ki(cathepsin L)/Ki(calpain) ratio of ≧50)
CCCCC(NC(=O)c1cc(Cl)cnc1-n1cnc(-c2ccccc2)c1)C(=O)C(N)=O.Cl (centres unmarked) [Example 24, N-{1-[Amino(oxo)acetyl]pentyl}-5-chloro-2-(4-phenyl-1H-imidazol-1-yl)nicotinamide hydrochloride] | + (+ means 30≦Ki(cathepsin L)/Ki(calpain)<50)

biological target: T2, cathepsin S (Homo sapiens, UniProt P25774); assay: Cathepsin S enzyme inhibition in vitro (kinetic fluorescence assay); format: biochemical; settings: Ki(cathepsin S)/Ki(calpain) ratio
T2 construct: purchased Calbiochem 219343; host or cells: E. coli
T2 sequence (P25774 115-331): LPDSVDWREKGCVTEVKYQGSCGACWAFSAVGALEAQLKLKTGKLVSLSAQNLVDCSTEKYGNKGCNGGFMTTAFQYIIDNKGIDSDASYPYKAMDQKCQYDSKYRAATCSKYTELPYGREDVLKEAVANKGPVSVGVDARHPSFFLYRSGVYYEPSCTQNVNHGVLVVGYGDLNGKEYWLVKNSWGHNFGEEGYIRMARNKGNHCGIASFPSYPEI
Method: as §1, §2, §3, §4

Compound | Sel cat. S
CCCCC(NC(=O)c1cccnc1-n1cnc(-c2ccc(C(F)(F)F)cc2)c1)C(=O)C(N)=O.Cl (centres unmarked) [Example 17, N-{1-[Amino(oxo)acetyl]pentyl}-2-{4-[4-(trifluoromethyl)phenyl]-1H-imidazol-1-yl}nicotinamide hydrochloride] | + (+ means 50≦Ki(cathepsin S)/Ki(calpain)<100)
NC(=O)C(=O)C(Cc1ccccc1)NC(=O)c1cccnc1-n1cc(CN2CCCC2)c(-c2cccc(C(F)(F)F)c2)n1 (centres unmarked) [Example 178, N-[3-Amino-2,3-dioxo-1-(phenylmethyl)propyl]-2-{4-(pyrrolidin-1-ylmethyl)-3-[3-(trifluoronnethyl)phenyl]-1H-pyrazol-1-yl}pyridine-3-carboxamide] | ++ (++ means a Ki(cathepsin S)/Ki(calpain) ratio of ≧100)
NC(=O)C(=O)C(Cc1ccccc1)NC(=O)c1cccnc1-n1cnc(-c2ccc(Cl)cc2)c1 (centres unmarked) [Example 9, N-(3-Amino-1-benzyl-2,3-dioxopropyl)-2-[4-(4-chlorophenyl)-1H-imidazol-1-yl]nicotinamide] | ++ (++ means a Ki(cathepsin S)/Ki(calpain) ratio of ≧100)
CS(=O)(=O)NCc1cn(-c2ncccc2C(=O)NC(Cc2ccccc2)C(=O)C(N)=O)nc1-c1ccc(F)cc1 (centres unmarked) [Example 187, N-[3-Amino-2,3-dioxo-1-(phenylmethyl)propyl]-2-[3-(4-fluorophenyl)-4-{[(methylsulfonyl)amino]methyl}-1H-pyrazol-1-yl]pyridine-3-carboxamide] | ++ (++ means a Ki(cathepsin S)/Ki(calpain) ratio of ≧100)
Cl.NC(=O)C(=O)C(Cc1ccccc1)NC(=O)c1cccnc1-n1ccc(-c2cccc(CN3CCOCC3)c2)n1 (centres unmarked) [Example 52, N-(3-Amino-1-benzyl-2,3-dioxopropyl)-2-{3-[3-(morpholin-4-ylmethyl)phenyl]-1H-pyrazol-1-yl}nicotinamide hydrochloride] | ++ (++ means a Ki(cathepsin S)/Ki(calpain) ratio of ≧100)
CN(C)Cc1cn(-c2ncccc2C(=O)NC(Cc2ccccc2)C(=O)C(N)=O)nc1-c1cccc(C(F)(F)F)c1 (centres unmarked) [Example 176, N-[3-Amino-2,3-dioxo-1-(phenylmethyl)propyl]-2-{4-[(dimethylamino)methyl]-3-[3-(trifluoromethyl)phenyl]-1H-pyrazol-1-yl}pyridine-3-carboxamide] | ++ (++ means a Ki(cathepsin S)/Ki(calpain) ratio of ≧100)
CCN(CC)Cc1ccc(-c2ccn(-c3ncccc3C(=O)NC(Cc3ccccc3)C(=O)C(N)=O)n2)cc1.Cl (centres unmarked) [Example 43, N-(3-Amino-1-benzyl-2,3-dioxopropyl)-2-(3-{4-[(diethylamino)methyl]phenyl}-1H-pyrazol-1-yl)nicotinamide hydrochloride] | ++ (++ means a Ki(cathepsin S)/Ki(calpain) ratio of ≧100)
NC(=O)C(=O)C(Cc1ccccc1)NC(=O)c1cccnc1-n1cc(CCN2CCOCC2)c(-c2ccc(F)cc2)n1 (centres unmarked) [Example 165, N-[3-Amino-2,3-dioxo-1-(phenylmethyl)propyl]-2-[3-(4-fluorophenyl)-4-(2-morpholin-4-ylethyl)-1H-pyrazol-1-yl]pyridine-3-carboxamide] | ++ (++ means a Ki(cathepsin S)/Ki(calpain) ratio of ≧100)
NC(=O)C(=O)C(Cc1ccccc1)NC(=O)c1cccnc1-n1ccc(-c2ccc(-n3ccnc3)cc2)n1 (centres unmarked) [Example 101, N-[3-Amino-2,3-dioxo-1-(phenylmethyl)propyl]-2-{3-[4-(1H-imidazol-1-yl)phenyl]-1H-pyrazol-1-yl}pyridine-3-carboxamide] | ++ (++ means a Ki(cathepsin S)/Ki(calpain) ratio of ≧100)
CCCCC(NC(=O)c1cccnc1-n1ccc(-c2ccc(CN3CCOCC3)cc2)n1)C(=O)C(N)=O (centres unmarked) [Example 45, N-{1-[Amino(oxo)acetyl]pentyl}-2-{3-[4-(morpholin-4-ylmethyl)phenyl]-1H-pyrazol-1-yl}nicotinamide] | + (+ means 50≦Ki(cathepsin S)/Ki(calpain)<100)
CCN(CC)c1ccc(-c2ccn(-c3ncccc3C(=O)NC(Cc3ccccc3)C(=O)C(N)=O)n2)cc1 (centres unmarked) [Example 42, N-(3-Amino-1-benzyl-2,3-dioxopropyl)-2-{3-[4-(diethylamino)phenyl]-1H-pyrazol-1-yl}nicotinamide] | ++ (++ means a Ki(cathepsin S)/Ki(calpain) ratio of ≧100)
NC(=O)C(=O)C(Cc1ccccc1)NC(=O)c1cccnc1-n1cc(CN2CCOCC2)c(-c2cccc(C(F)(F)F)c2)n1 (centres unmarked) [Example 177, N-[3-Amino-2,3-dioxo-1-(phenylmethyl)propyl]-2-{4-(morpholin-4-ylmethyl)-3-[3-(trifluoromethyl)phenyl]-1H-pyrazol-1-yl}pyridine-3-carboxamide] | ++ (++ means a Ki(cathepsin S)/Ki(calpain) ratio of ≧100)
CCCCC(NC(=O)c1cccnc1-n1ccc(-c2ccccc2)n1)C(=O)C(N)=O (centres unmarked) [Example 6, N-{1-[Amino(oxo)acetyl]pentyl}-2-(3-phenyl-1H-pyrazol-1-yl)nicotinamide] | + (+ means 50≦Ki(cathepsin S)/Ki(calpain)<100)
CCCCC(NC(=O)c1cccnc1-n1ccc(-c2ccc(N(CC)CC)cc2)n1)C(=O)C(N)=O (centres unmarked) [Example 47, N-{1-[Amino(oxo)acetyl]pentyl}-2-{3-[4-(diethylamino)phenyl]-1H-pyrazol-1-yl}nicotinamide] | ++ (++ means a Ki(cathepsin S)/Ki(calpain) ratio of ≧100)
CCCCC(NC(=O)c1cccnc1-n1ccc(-c2ccc(CN(CC)CC)cc2)n1)C(=O)C(N)=O (centres unmarked) [Example 44, N-{1-[Amino(oxo)acetyl]pentyl}-2-(3-{4-[(diethylamino)methyl]phenyl}-1H-pyrazol-1-yl)nicotinamide] | + (+ means 50≦Ki(cathepsin S)/Ki(calpain)<100)
NC(=O)C(=O)C(Cc1ccccc1)NC(=O)c1cccnc1-n1ccc(-c2ccc(CN3CCOCC3)cc2)n1 (centres unmarked) [Example 46, N-(3-Amino-1-benzyl-2,3-dioxopropyl)-2-{3-[4-(morpholin-4-ylmethyl)phenyl]-1H-pyrazol-1-yl}nicotinamide] | ++ (++ means a Ki(cathepsin S)/Ki(calpain) ratio of ≧100)
NC(=O)C(=O)C(Cc1ccccc1)NC(=O)c1cccnc1-n1cnc(-c2ccc(N3CCOCC3)cc2)c1 (centres unmarked) [Example 14, N-(3-Amino-1-benzyl-2,3-dioxopropyl)-2-[4-(4-morpholin-4-ylphenyl)-1H-imidazol-1-yl]nicotinamide] | ++ (++ means a Ki(cathepsin S)/Ki(calpain) ratio of ≧100)
NC(=O)C(=O)C(Cc1ccccc1)NC(=O)c1cccnc1-n1cc(-c2ccccc2F)cn1 (centres unmarked) [Example 104, N-[3-Amino-2,3-dioxo-1-(phenylmethyl)propyl]-2-[4-(2-fluorophenyl)-1H-pyrazol-1-yl]pyridine-3-carboxamide] | + (+ means 50≦Ki(cathepsin S)/Ki(calpain)<100)
NC(=O)C(=O)C(Cc1ccccc1)NC(=O)c1cccnc1-n1ccc(-c2ccncc2)n1 (centres unmarked) [Example 65, N-(3-Amino-1-benzyl-2,3-dioxopropyl)-2-(3-pyridin-4-yl-1H-pyrazol-1-yl)nicotinamide] | ++ (++ means a Ki(cathepsin S)/Ki(calpain) ratio of ≧100)
